In ChEMBL document CHEMBL4311997, “Discovery of a potent histone deacetylase (HDAC) 3/6 selective dual inhibitor” (Eur J Med Chem, 2019):
In brackets after ≈: the same amount, converted by molar mass. Activity calls are given as the source filed them. No cut-off for these calls is given here.

Assays:
Histone deacetylase 3 = Histone deacetylase 3 (Homo sapiens, UniProt O15379); assay: Inhibition of human HDAC3 using Arg-His-Lys-Lys (Ac) as substrate incubated for 2 hrs by fluorescence assay
[1] = Half life in mouse liver microsomes at 3 uM preincubated for 5 mins followed by NADPH addition and measured up to 45 mins by LC-MS/MS analysis; assay type: ADME, Microsome
Plasmodium falciparum = assay: microbe, parasite or virus in culture; assay type: functional, organism-based; conditions: 3D7, 48 h
Description: Antimalarial activity against ring stage Plasmodium falciparum 3D7 incubated for 48 hrs by Hoechst 33342 staining based fluorescence based assay

OPM-2 = assay: Antiproliferative activity against human OPM2 cells incubated for 48 hrs by CellTiter-Glo luminescent cell viability assay; assay type: functional, cell-based; conditions: OPM-2, 48 h
[2] = Intrinsic clearance in female rat liver microsomes at 3 uM preincubated for 5 mins followed by NADPH addition and measured up to 45 mins by LC-MS/MS analysis; assay type: ADME, Microsome
Homo sapiens [3] = organism: Homo sapiens; assay: Selectivity ratio of IC50 for human HDAC9 to IC50 for human HDAC6
[4] = biological target: Histone-lysine N-methyltransferase SUV39H1 (Homo sapiens) (UniProt O43463); assay: Inhibition of human SUV39H1 at 100 uM using histone H3 as substrate incubated for 1 hr in presence of [3H]-SAM by filter binding method relative to control
[5] = biological target: Protein deacetylase HDAC6 (Homo sapiens) (UniProt Q9UBN7); assay: Inhibition of HDAC6 in human KMS-12-BM cells assessed as increase in Ac-Tubulin level at 2.5 to 10 uM incubated for 24 hrs by Western blot analysis; assay type: cell-based
MDA-MB-231 [6] = assay: Induction of apoptosis in human MDA-MB-231 cells assessed as late apoptotic cells at 6 uM incubated for 48 hrs by Annexin V-FITC/PI staining by flow cytometric analysis (reference value: 3%); assay type: functional
[7] = biological target: Histone-lysine N-methyltransferase EHMT2 (Homo sapiens) (UniProt Q96KQ7); assay: Inhibition of human G9a at 100 uM using core histone H3 (1 to 21 residues) as substrate incubated for 1 hr in presence of [3H]-SAM by filter binding method relative to control
[8] = Intrinsic clearance in male rat liver microsomes at 3 uM preincubated for 5 mins followed by NADPH addition and measured up to 45 mins by LC-MS/MS analysis; assay type: ADME, Microsome; conditions: read-out: CLH
[9] = Inhibition of human MLL1 complex using core histone as substrate incubated for 1 hr in presence of [3H]-SAM by filter binding method
Homo sapiens [10] = organism: Homo sapiens; assay: Selectivity ratio of IC50 for human HDAC5 to IC50 for human HDAC6
[11] = Selectivity index, ratio of EC50 for human MDA-MB-231 cells to IC50 for ring stage Plasmodium falciparum 3D7; assay type: functional; parameters: reference not given here
[12] = biological target: DNA (cytosine-5)-methyltransferase 3A (Homo sapiens, UniProt Q9Y6K1); assay: Inhibition of human DNMT3a using lambda DNA as substrate incubated for 1 hr in presence of [3H]-SAM by filter binding method
MDA-MB-231 [13] = assay: Antiproliferative activity against human MDA-MB-231 cells incubated for 72 hrs by MTT assay; assay type: functional, cell-based; conditions: MDA-MB-231, 72 h
KMS-12-BM = assay: Effect on human KMS-12-BM cells assessed as increase in H3K9Me2 level at 2.5 to 10 uM incubated for 24 hrs by Western blot analysis; assay type: functional, cell-based
[14] = Therapeutic Index, ratio of EC50 for mouse TAMH cells to EC50 for human MDA-MB-231 cells; assay type: toxicity; conditions: TAMH cells versus MDA-MB-231 cells, read-out: Ratio EC50
Histone deacetylase 1 = Histone deacetylase 1 (Homo sapiens, UniProt Q13547)
Description: Inhibition of human HDAC1 using Arg-His-Lys-Lys (Ac) as substrate incubated for 2 hrs by fluorescence assay

[15] = Half life in male rat liver microsomes at 3 uM preincubated for 5 mins followed by NADPH addition and measured up to 45 mins by LC-MS/MS analysis; assay type: ADME, Microsome
[16] = biological target: Histone-lysine N-methyltransferase EHMT2 (Homo sapiens, UniProt Q96KQ7); assay: Inhibition of human G9a using core histone H3 (1 to 21 residues) as substrate incubated for 1 hr in presence of [3H]-SAM by filter binding method
Homo sapiens [17] = organism: Homo sapiens; assay: Selectivity ratio of IC50 for inhibition of human HDAC2 to IC50 for inhibition of human HDAC3
MDA-MB-231 [18] = assay: Induction of apoptosis in human MDA-MB-231 cells assessed as necrotic cells at 6 uM incubated for 48 hrs by Annexin V-FITC/PI staining by flow cytometric analysis (reference value: 15%); assay type: functional
[19] = Genotoxicity in Salmonella typhimurium TA98 in presence of S9 fraction incubated for 48 hrs by Ames test relative to control; assay type: toxicity, subcellular; conditions: salmonella enterica subsp. enterica serovar typhimurium, s9, 48 h
[20] = biological target: Histone deacetylase 1/2/3 (Homo sapiens, UniProt Q13547+O15379+Q92769); assay: Inhibition of HDAC1/2/3 in human KMS-12-BM cells assessed as increase in Ac-H3 level incubated for 24 hrs by Western blot analysis; assay type: cell-based
[21] = Genotoxicity in Salmonella typhimurium TA100 in presence of S9 fraction incubated for 48 hrs by Ames test relative to control; assay type: toxicity, subcellular; conditions: salmonella enterica subsp. enterica serovar typhimurium, s9, 48 h
[22] = biological target: Histone-lysine N-methyltransferase, H3 lysine-79 specific (Homo sapiens) (UniProt Q8TEK3); assay: Inhibition of human DOT1L at 100 uM using oligo nucleosomes as substrate incubated for 1 hr in presence of [3H]-SAM by filter binding method relative to control
[23] = Selectivity index, ratio of EC50 for human MDA-MB-231 cells to IC50 for ring stage Plasmodium falciparum K1; assay type: functional; parameters: reference not given here
[24] = biological target: DNA (cytosine-5)-methyltransferase 1 (Homo sapiens, UniProt P26358); assay: Inhibition of human DNMT1 using Poly(dI-dC) as substrate incubated for 1 hr in presence of [3H]-SAM by filter binding method
[25] = Kinetic solubility in pH 7.4 universal buffer measured after 3 hrs by UV spectroscopic analysis; assay type: physicochemical; conditions: read-out: Kinetic_solubility
MDA-MB-231 [26] = assay: Induction of apoptosis in human MDA-MB-231 cells assessed as early apoptotic cells at 3 uM incubated for 48 hrs by Annexin V-FITC/PI staining by flow cytometric analysis (reference value: 5%); assay type: functional
[27] = Kinetic solubility in pH 7.4 universal buffer measured after 24 hrs by UV spectroscopic analysis; assay type: physicochemical; conditions: read-out: Kinetic_solubility
MDA-MB-231 [28] = assay: Induction of apoptosis in human MDA-MB-231 cells assessed as necrotic cells at 3 uM incubated for 48 hrs by Annexin V-FITC/PI staining by flow cytometric analysis (reference value: 15%); assay type: functional
MDA-MB-231 [29] = assay: Induction of apoptosis in human MDA-MB-231 cells assessed as viable cells at 9 uM incubated for 48 hrs by Annexin V-FITC/PI staining by flow cytometric analysis (reference value: 77%); assay type: functional; conditions: MDA-MB-231, 48 h, read-out: Activity
MDA-MB-231 [30] = assay: Induction of apoptosis in human MDA-MB-231 cells assessed as late apoptotic cells at 3 uM incubated for 48 hrs by Annexin V-FITC/PI staining by flow cytometric analysis (reference value: 3%); assay type: functional

Chain of Histone deacetylase 3 (O15379 whole entry): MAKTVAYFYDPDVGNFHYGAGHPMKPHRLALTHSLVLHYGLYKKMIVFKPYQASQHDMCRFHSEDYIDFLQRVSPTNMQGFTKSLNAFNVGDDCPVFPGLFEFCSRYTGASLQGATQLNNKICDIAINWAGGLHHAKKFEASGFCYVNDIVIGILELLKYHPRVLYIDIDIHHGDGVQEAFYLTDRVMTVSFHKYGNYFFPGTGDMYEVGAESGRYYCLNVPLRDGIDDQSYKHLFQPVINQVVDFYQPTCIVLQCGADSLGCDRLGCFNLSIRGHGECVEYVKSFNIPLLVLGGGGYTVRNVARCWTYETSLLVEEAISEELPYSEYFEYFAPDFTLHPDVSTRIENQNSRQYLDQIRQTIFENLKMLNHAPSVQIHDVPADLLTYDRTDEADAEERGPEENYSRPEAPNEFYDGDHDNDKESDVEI
Chain of DNA (cytosine-5)-methyltransferase 1 (P26358 whole entry): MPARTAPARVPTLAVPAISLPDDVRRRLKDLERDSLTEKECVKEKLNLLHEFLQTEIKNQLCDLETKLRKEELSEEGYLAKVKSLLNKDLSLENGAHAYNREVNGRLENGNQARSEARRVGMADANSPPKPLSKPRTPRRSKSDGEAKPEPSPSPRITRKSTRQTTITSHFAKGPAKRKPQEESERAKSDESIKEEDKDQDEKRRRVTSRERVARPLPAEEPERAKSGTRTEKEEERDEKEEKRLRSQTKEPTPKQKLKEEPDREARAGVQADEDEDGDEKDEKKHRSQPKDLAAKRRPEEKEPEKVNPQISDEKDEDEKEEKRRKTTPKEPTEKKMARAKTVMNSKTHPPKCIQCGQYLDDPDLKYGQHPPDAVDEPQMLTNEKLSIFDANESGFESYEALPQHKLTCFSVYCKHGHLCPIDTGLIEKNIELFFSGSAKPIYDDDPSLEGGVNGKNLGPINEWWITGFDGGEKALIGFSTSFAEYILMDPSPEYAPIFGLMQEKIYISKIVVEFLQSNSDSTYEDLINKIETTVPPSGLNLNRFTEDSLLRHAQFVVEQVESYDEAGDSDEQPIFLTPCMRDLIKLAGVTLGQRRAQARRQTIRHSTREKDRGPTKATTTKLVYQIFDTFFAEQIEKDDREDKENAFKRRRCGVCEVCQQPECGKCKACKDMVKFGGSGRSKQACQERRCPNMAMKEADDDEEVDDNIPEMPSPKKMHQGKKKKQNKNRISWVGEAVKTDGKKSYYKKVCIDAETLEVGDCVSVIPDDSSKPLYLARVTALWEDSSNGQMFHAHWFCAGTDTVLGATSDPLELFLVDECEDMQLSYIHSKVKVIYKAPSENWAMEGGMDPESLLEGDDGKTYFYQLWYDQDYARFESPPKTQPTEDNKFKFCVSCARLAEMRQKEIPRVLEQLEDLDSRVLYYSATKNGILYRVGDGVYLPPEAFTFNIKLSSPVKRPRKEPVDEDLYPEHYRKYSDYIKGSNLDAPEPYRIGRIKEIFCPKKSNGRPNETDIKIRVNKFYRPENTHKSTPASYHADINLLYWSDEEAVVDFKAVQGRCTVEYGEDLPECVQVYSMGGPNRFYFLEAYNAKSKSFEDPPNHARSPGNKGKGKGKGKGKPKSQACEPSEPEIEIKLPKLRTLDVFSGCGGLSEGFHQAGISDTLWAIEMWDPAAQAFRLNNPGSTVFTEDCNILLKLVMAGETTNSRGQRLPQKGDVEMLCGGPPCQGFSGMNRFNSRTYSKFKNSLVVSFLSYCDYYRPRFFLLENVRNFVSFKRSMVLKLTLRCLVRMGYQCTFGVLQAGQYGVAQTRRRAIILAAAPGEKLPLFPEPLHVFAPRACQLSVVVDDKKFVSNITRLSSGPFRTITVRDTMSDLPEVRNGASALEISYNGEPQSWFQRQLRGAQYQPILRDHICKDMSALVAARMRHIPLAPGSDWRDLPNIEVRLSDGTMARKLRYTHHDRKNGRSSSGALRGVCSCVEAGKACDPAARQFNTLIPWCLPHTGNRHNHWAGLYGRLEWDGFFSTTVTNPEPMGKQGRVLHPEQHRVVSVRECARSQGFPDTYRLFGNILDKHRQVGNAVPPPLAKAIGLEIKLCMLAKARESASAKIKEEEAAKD
Chain of Histone deacetylase 1 (Q13547 whole entry): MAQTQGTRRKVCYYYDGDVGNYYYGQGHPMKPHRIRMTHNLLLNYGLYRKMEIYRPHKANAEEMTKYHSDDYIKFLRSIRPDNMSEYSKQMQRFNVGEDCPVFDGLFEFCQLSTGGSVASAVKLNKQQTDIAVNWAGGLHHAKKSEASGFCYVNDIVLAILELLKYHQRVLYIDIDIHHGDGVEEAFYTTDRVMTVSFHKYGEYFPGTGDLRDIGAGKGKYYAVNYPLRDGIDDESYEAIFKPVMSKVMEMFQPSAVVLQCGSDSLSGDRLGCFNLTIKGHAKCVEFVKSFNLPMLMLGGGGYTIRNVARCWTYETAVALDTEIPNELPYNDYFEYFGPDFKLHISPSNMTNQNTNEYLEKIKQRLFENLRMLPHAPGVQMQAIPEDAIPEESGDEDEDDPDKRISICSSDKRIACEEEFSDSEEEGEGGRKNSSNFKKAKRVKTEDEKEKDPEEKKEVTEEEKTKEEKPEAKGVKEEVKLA
Chain of Histone-lysine N-methyltransferase SUV39H1 (Homo sapiens) (O43463 whole entry): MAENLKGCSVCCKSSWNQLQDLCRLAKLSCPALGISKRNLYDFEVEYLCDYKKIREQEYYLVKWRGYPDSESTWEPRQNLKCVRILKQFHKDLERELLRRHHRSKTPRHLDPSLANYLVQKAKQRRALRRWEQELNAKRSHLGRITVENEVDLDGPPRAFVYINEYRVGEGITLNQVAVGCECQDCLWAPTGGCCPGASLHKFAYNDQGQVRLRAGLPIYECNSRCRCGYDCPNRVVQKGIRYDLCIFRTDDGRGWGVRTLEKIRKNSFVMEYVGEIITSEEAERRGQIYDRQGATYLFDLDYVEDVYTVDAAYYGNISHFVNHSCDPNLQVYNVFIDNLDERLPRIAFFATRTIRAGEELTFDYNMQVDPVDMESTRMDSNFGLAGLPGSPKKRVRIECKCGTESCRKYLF
Chain of Histone-lysine N-methyltransferase, H3 lysine-79 specific (Homo sapiens) (Q8TEK3 whole entry, looked up): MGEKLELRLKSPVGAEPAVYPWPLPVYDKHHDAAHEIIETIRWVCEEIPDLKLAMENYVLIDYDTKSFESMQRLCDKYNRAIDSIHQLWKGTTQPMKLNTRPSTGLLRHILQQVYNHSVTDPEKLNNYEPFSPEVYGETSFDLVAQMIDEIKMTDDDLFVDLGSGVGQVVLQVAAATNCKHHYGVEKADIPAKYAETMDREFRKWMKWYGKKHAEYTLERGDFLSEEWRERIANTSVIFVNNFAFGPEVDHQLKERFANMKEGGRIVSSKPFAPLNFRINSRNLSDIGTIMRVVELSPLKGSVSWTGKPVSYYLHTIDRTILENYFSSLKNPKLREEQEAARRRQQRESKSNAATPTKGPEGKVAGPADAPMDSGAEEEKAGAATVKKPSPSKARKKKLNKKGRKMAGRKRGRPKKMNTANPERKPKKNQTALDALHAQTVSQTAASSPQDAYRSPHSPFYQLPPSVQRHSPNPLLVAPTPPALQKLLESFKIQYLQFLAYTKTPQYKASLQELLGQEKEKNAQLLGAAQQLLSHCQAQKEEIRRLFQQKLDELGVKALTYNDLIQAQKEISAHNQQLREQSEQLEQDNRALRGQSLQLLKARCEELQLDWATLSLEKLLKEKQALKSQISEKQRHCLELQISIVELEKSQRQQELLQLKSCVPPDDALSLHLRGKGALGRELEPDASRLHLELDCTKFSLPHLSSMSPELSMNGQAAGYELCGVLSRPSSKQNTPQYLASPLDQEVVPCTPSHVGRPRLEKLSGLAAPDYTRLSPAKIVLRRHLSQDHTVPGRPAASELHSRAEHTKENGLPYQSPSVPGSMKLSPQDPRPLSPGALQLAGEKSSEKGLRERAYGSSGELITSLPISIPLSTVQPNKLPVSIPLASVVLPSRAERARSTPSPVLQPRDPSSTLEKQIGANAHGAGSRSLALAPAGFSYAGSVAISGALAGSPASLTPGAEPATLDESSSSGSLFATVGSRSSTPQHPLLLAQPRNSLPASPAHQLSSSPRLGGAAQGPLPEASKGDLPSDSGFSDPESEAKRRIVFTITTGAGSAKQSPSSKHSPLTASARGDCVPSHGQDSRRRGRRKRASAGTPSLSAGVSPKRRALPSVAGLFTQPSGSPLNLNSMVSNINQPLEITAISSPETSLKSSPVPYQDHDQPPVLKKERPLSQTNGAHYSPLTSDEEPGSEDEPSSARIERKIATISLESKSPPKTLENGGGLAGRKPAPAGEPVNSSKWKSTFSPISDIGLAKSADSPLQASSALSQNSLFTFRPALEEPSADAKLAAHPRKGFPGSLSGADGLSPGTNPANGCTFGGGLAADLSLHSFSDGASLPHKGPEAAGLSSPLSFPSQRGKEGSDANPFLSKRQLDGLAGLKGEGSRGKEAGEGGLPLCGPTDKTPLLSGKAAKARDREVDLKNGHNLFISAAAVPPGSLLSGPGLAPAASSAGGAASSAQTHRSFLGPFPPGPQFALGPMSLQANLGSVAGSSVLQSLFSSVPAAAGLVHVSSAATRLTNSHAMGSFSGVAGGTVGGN

With `COc1ccc(CN2CCC(Nc3nc(Nc4ccc(NC(=O)CCCCCCC(=O)NO)cc4)nc4cc(OC)c(OC)cc34)CC2)cc1` the IC50 (Histone deacetylase 3) was 0.034 µM, the half-life at 3 µM [1] was 0.443 h and the IC50 (Plasmodium falciparum) was 0.145 µM. It also gave an EC50 (OPM-2) of 7.9 µM, a microsomal CLint at 3 µM [2] of 22.3 µL/min/mg and a Ratio IC50 (Homo sapiens [3]) of over 3000. For the same compound, the inhibition [4] was 14%, the inhibition [5] was “Active” and the Activity (MDA-MB-231 [6]) was 15%. The inhibition [7] was 37%, the microsomal CLint at 3 µM [8] was 16.3 µL/min/mg and the EC50 [9] was 158 µM. For the same compound, the Ratio IC50 (Homo sapiens [10]) was over 3000, the “Selectivity Index” value [11] was 43 and the IC50 [12] was 74 µM. For the same compound, the EC50 (MDA-MB-231 [13]) was 6.3 µM, the Activity (KMS-12-BM) was “Active” and the selectivity ratio [14] was 5. The IC50 (Histone deacetylase 1) was 0.896 µM, the half-life at 3 µM [15] was 2.38 h and the EC50 [16] was 142 µM. For the same compound, the Ratio IC50 (Homo sapiens [17]) was 26 to 33, the Activity (MDA-MB-231 [18]) was 12% and the Activity [19] was “Non-Toxic”. For the same compound, the EC50 [20] was 7.5 µM, the inhibition [20] was “Dose-dependent effect” and the Activity [21] was “Non-Toxic”. The inhibition [22] was 16%, the “Selectivity Index” value [23] was 12 and the IC50 [24] was 14 µM. It also gave a solubility kinetic at 3 h [25] of 4.6 µM (≈ 3.15 µg/mL), an Activity (MDA-MB-231 [26]) of 23% and a solubility kinetic at 24 h [27] of 4 µM (≈ 2.74 µg/mL). The Activity (MDA-MB-231 [28]) was 15%, the viability at 9 µM (MDA-MB-231 [29]) was 57% and the Activity (MDA-MB-231 [30]) was 15%.
